Assay results taken from patent US8278452B2, “Heterocyclic compounds and compositions as c-kit and PDGFR kinase inhibitors” (IRM LLC, priority 2008, dated 2012).

tested on: Mo7e cells which endogenously express c-kit; test: Mo7e assay: inhibition of SCF dependent proliferation (MTT); format: cell-based; conditions: Table 1; SCF stimulated Mo7e cells, 48 hours, MTT
Method in brief: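 Mo7e cells stimulated with human recombinant SCF and exposed to two-fold serial compound dilutions from a top concentration of 10 μM. After 48 h at 37 °C, viability measured by MTT colorimetric assay; IC50 derived.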

| SMILES | IC50 [nM] |
| --- | --- |
| Cc1cc2c(cn1)cc(-c1cc(Nc3noc(-c4ccccn4)n3)ccc1C)c(=O)n2C [Compound A52, 1,7-dimethyl-3-(2-methyl-5-(5-(pyridin-2-yl)-1,2,4-oxadiazol-3-ylamino)phenyl)-1,6-naphthyridin-2(1H)-one] | 68 |
| CCC(C)c1nc(Nc2ccc(C)c(-c3cc4cnc(C)cc4n(C)c3=O)c2)no1 (stereo in doubt) [Compound A27, 3-[5-({5-[(2S)-butan-2-yl]-1,2,4-oxadiazol-3-yl}amino)-2-methylphenyl]-1,7-dimethyl-1,2-dihydro-1,6-naphthyridin-2-one] | 54 |
| CO[C@@H](C)c1nc(Nc2ccc(C)c(-c3cc4cnc(C)cc4n(C)c3=O)c2)no1 [Compound A76, (S)-3-(5-(5-(1-methoxyethyl)-1,2,4-oxadiazol-3-ylamino)-2-methylphenyl)-1,7-dimethyl-1,6-naphthyridin-2(1H)-one] | 142 |
| Cc1cc2c(cn1)cc(-c1cc(Nc3noc(C(C)Oc4ccccc4)n3)ccc1C)c(=O)n2C (stereo not drawn) [Compound A96, 1,7-dimethyl-3-(2-methyl-5-{[5-(1-phenoxyethyl)-1,2,4-oxadiazol-3-yl]amino}phenyl)-1,2-dihydro-1,6-naphthyridin-2-one] | 419 |
| Cc1cc2c(cn1)cc(-c1cc(Nc3noc(C(O)C(C)C)n3)ccc1C)c(=O)n2C (stereo not drawn) [Compound A64, 3-(5-(5-(1-hydroxy-2-methylpropyl)-1,2,4-oxadiazol-3-ylamino)-2-methylphenyl)-1,7-dimethyl-1,6-naphthyridin-2(1H)-one] | 118 |
| Cc1cc2c(cn1)cc(-c1cc(Nc3noc([C@H]4CCCO4)n3)ccc1C)c(=O)n2C [Compound A75, 1,7-dimethyl-3-[2-methyl-5-({5-[(2R)-oxolan-2-yl]-1,2,4-oxadiazol-3-yl}amino)phenyl]-1,2-dihydro-1,6-naphthyridin-2-one] | 40 |
| Cc1cc2c(cn1)cc(-c1cc(Nc3noc(CC(C)O)n3)ccc1C)c(=O)n2C (stereo not drawn) [Compound A55, 3-(5-{[5-(2-hydroxypropyl)-1,2,4-oxadiazol-3-yl]amino}-2-methylphenyl)-1,7-dimethyl-1,2-dihydro-1,6-naphthyridin-2-one] | 294 |
| Cc1cc2c(cn1)cc(-c1cc(Nc3noc(-c4c(F)cccc4F)n3)ccc1C)c(=O)n2C [Compound A60, 3-(5-{[5-(2,6-difluorophenyl)-1,2,4-oxadiazol-3-yl]amino}-2-methylphenyl)-1,7-dimethyl-1,2-dihydro-1,6-naphthyridin-2-one] | 82 |
| Cc1cc2c(cn1)cc(-c1cc(Nc3noc(-c4ccc(F)cc4)n3)ccc1C)c(=O)n2C [Compound A24, 3-(5-{[5-(4-fluorophenyl)-1,2,4-oxadiazol-3-yl]amino}-2-methylphenyl)-1,7-dimethyl-1,2-dihydro-1,6-naphthyridin-2-one] | 36 |
| Cc1cc2c(cn1)cc(-c1cc(Nc3noc(C4CCC4)n3)ccc1C)c(=O)n2C [Compound A11, 3-{5-[(5-cyclobutyl-1,2,4-oxadiazol-3-yl)amino]-2-methylphenyl}-1,7-dimethyl-1,2-dihydro-1,6-naphthyridin-2-one] | 12 |
| Cc1cc2c(cn1)cc(-c1cc(Nc3noc(C(C)(C)O)n3)ccc1C)c(=O)n2C [Compound A32, 3-(5-(5-(2-hydroxypropan-2-yl)-1,2,4-oxadiazol-3-ylamino)-2-methylphenyl)-1,7-dimethyl-1,6-naphthyridin-2(1H)-one] | 172 |
| Cc1cc2c(cn1)cc(-c1cc(Nc3cc(-c4ccc(Cl)cc4Cl)on3)ccc1C)c(=O)n2C [Compound D7] | 401 |
| Cc1ccc(-c2nc(Nc3ccc(C)c(-c4cc5cnc(C)cc5n(C)c4=O)c3)no2)nc1 [Compound A102, 1,7-dimethyl-3-(2-methyl-5-{[5-(5-methylpyridin-2-yl)-1,2,4-oxadiazol-3-yl]amino}phenyl)-1,2-dihydro-1,6-naphthyridin-2-one] | 113 |
| Cc1cc2c(cn1)cc(-c1cc(Nc3nnc(C4CCC4)[nH]3)ccc1C)c(=O)n2C [Compound C8, 3-{5-[(5-cyclobutyl-4H-1,2,4-triazol-3-yl)amino]-2-methylphenyl}-1,7-dimethyl-1,2-dihydro-1,6-naphthyridin-2-one] | 435 |
| Cc1cc2c(cn1)cc(-c1cc(Nc3noc(C(O)C(C)C)n3)ccc1C)c(=O)n2C (stereo in doubt) [Compound A93, 3-[5-({5-[(1S)-1-hydroxy-2-methylpropyl]-1,2,4-oxadiazol-3-yl}amino)-2-methylphenyl]-1,7-dimethyl-1,2-dihydro-1,6-naphthyridin-2-one] | 283 |
| Cc1cc2c(cn1)cc(-c1cc(Nc3noc(C4(CO)CC4)n3)ccc1C)c(=O)n2C [Compound A69, 3-(5-(5-(1-(hydroxymethyl)cyclopropyl)-1,2,4-oxadiazol-3-ylamino)-2-methylphenyl)-1,7-dimethyl-1,6-naphthyridin-2(1H)-one] | 148 |
| Cc1cc2c(cn1)cc(-c1cc(Nc3noc(-c4ccccc4)n3)ccc1C)c(=O)n2C [Compound A7, 1,7-dimethyl-3-(2-methyl-5-(5-phenyl-1,2,4-oxadiazol-3-ylamino)phenyl)-1,6-naphthyridin-2(1H)-one] | 76 |

| SMILES | IC50 [nM] |
| --- | --- |
| Cc1cc2c(cn1)cc(-c1cc(Nc3nnc(CC(C)(C)C)[nH]3)ccc1C)c(=O)n2C [Compound C5, 3-(5-{[5-(2,2-dimethylpropyl)-4H-1,2,4-triazol-3-yl]amino}-2-methylphenyl)-1,7-dimethyl-1,2-dihydro-1,6-naphthyridin-2-one] | 320 |
| Cc1cc2c(cn1)cc(-c1cc(Nc3noc(-c4ccc(C(C)(F)F)cc4)n3)ccc1C)c(=O)n2C [Compound A89, 3-[5-({5-[4-(1,1-difluoroethyl)phenyl]-1,2,4-oxadiazol-3-yl}amino)-2-methylphenyl]-1,7-dimethyl-1,2-dihydro-1,6-naphthyridin-2-one] | 217 |
| Cc1cc2c(cn1)cc(-c1cc(Nc3nc(C(C)C)no3)ccc1C)c(=O)n2C [Compound E3, 3-(5-(3-isopropyl-1,2,4-oxadiazol-5-ylamino)-2-methylphenyl)-1,7-dimethyl-1,6-naphthyridin-2(1H)-one] | 181 |
| Cc1cc2c(cn1)cc(-c1cc(Nc3noc(C(C)(C)C)n3)ccc1C)c(=O)n2C [Compound A30, 3-{5-[(5-tert-butyl-1,2,4-oxadiazol-3-yl)amino]-2-methylphenyl}-1,7-dimethyl-1,2-dihydro-1,6-naphthyridin-2-one] | 245 |
| Cc1cc2c(cn1)cc(-c1cc(Nc3noc(-c4ccc(C)nc4Cl)n3)ccc1C)c(=O)n2C [Compound A48, 3-(5-{[5-(2-chloro-6-methylpyridin-3-yl)-1,2,4-oxadiazol-3-yl]amino}-2-methylphenyl)-1,7-dimethyl-1,2-dihydro-1,6-naphthyridin-2-one] | 361 |
| Cc1cc2c(cn1)cc(-c1cc(Nc3noc(C4(O)CC4)n3)ccc1C)c(=O)n2C [Compound A57, 3-(5-(5-(1-hydroxycyclopropyl)-1,2,4-oxadiazol-3-ylamino)-2-methylphenyl)-1,7-dimethyl-1,6-naphthyridin-2(1H)-one] | 185 |
| Cc1cc2c(cn1)cc(-c1cc(Nc3noc(CC(C)(C)C)n3)ccc1C)c(=O)n2C [Compound A19, 3-(5-{[5-(2,2-dimethylpropyl)-1,2,4-oxadiazol-3-yl]amino}-2-methylphenyl)-1,7-dimethyl-1,2-dihydro-1,6-naphthyridin-2-one] | 216 |
| Cc1cc2c(cn1)cc(-c1cc(Nc3noc([C@@]4(C)CCCO4)n3)ccc1C)c(=O)n2C [Compound A97, 1,7-dimethyl-3-[2-methyl-5-({5-[(2R)-2-methyloxolan-2-yl]-1,2,4-oxadiazol-3-yl}amino)phenyl]-1,2-dihydro-1,6-naphthyridin-2-one] | 160 |
| Cc1cc2c(cn1)cc(-c1cc(Nc3nnc(C(C)C)o3)ccc1C)c(=O)n2C [Compound B7, 1,7-dimethyl-3-(2-methyl-5-{[5-(propan-2-yl)-1,3,4-oxadiazol-2-yl]amino}phenyl)-1,2-dihydro-1,6-naphthyridin-2-one] | 162 |
| Cc1cc2c(cn1)cc(-c1cc(Nc3noc(-c4ccccc4C#N)n3)ccc1C)c(=O)n2C [Compound A38, 2-(3-{[3-(1,7-dimethyl-2-oxo-1,2-dihydro-1,6-naphthyridin-3-yl)-4-methylphenyl]amino}-1,2,4-oxadiazol-5-yl)benzonitrile] | 325 |
| Cc1cc2c(cn1)cc(-c1cc(Nc3noc(-c4ccc(Cl)nc4)n3)ccc1C)c(=O)n2C [Compound A1, 3-(5-{[5-(6-chloropyridin-3-yl)-1,2,4-oxadiazol-3-yl]amino}-2-methylphenyl)-1,7-dimethyl-1,2-dihydro-1,6-naphthyridin-2-one] | 100 |
| Cc1ccc(-c2nc(Nc3ccc(C)c(-c4cc5cnc(C)cc5n(C)c4=O)c3)no2)cn1 [Compound A51, 1,7-dimethyl-3-(2-methyl-5-(5-(6-methylpyridin-3-yl)-1,2,4-oxadiazol-3-ylamino)phenyl)-1,6-naphthyridin-2(1H)-one] | 119 |
| Cc1cc2c(cn1)cc(-c1cc(Nc3noc(-c4ccc(CO)cc4)n3)ccc1C)c(=O)n2C [Compound A43, 3-[5-({5-[4-(hydroxymethyl)phenyl]-1,2,4-oxadiazol-3-yl}amino)-2-methylphenyl]-1,7-dimethyl-1,2-dihydro-1,6-naphthyridin-2-one] | 386 |
| Cc1cc2c(cn1)cc(-c1cc(Nc3noc(C4CCCOC4)n3)ccc1C)c(=O)n2C (stereo not drawn) [Compound A59, 1,7-dimethyl-3-(2-methyl-5-{[5-(oxan-3-yl)-1,2,4-oxadiazol-3-yl]amino}phenyl)-1,2-dihydro-1,6-naphthyridin-2-one] | 233 |
| Cc1ccc(-c2nc(Nc3ccc(C)c(-c4cc5cnc(C)cc5n(C)c4=O)c3)no2)cc1 [Compound A13, 1,7-dimethyl-3-(2-methyl-5-{[5-(4-methylphenyl)-1,2,4-oxadiazol-3-yl]amino}phenyl)-1,2-dihydro-1,6-naphthyridin-2-one] | 13 |
| Cc1cc2c(cn1)cc(-c1cc(Nc3cc(-c4ccc(Cl)nc4)on3)ccc1C)c(=O)n2C [Compound D12] | 198 |
